Laboratory results from patent publication US20230172940A1, “METHODS OF EXTENDING LIFESPAN BY ADMINISTERING FERROPTOSIS INHIBITORS” (COLLABORATIVE MEDICINAL DEVELOPMENT, LLC, priority 2020, published 2023).

Tested on: C. elegans strain TJ1060
Assay: Lifespan determination
Type: in vivo, Caenorhabditis elegans
Settings: alternative ferroptosis inhibitor
Protocol: Lifespan was measured using established protocols. SIH was dissolved in neat dimethyl sulfoxide (DMSO; Sigma-Aldrich) then added to the molten NGM at 55° C. (to a final concentration of 250 μM SIH in 0.5% v/v DMSO). Lip-1 was dissolved in neat DMSO then added to the molten NGM at 55° C. (to a final concentration of 200 μM Lip-1 in 0.5% v/v DMSO). Media containing equivalent vehicle alone (0.5% v/v DMSO) was used for comparison. Standard overnight culture of the Escherichia coli (E. coli) strain OP50 was used as the food source.
Lifespan data was collected at 25 (±1) ° C. using the temperature sensitive-sterile strain TJ1060 [spe-9(hc88); fer-15(b26)]. A synchronous population was obtained by transferring egg-laying adults to fresh plates at 16° C. for 2-3 hours. The adults were removed and the plates with eggs then transferred to 25° C. to ensure sterility. After 48 hours at 25° C., when worms were at the late L4/young adult stage, 25-35 nematodes were transferred to fresh plates containing either vehicle control, 250 μM SIH, or 200 μM Lip-1. All plates were coded to allowing blinding of the experimenter to the treatment regime during scoring. Nematodes were scored for survival at one to three-day intervals and transferred to freshly prepared plates as needed (2-5 days).
It is well documented that differences are observed between independent measures of lifespan, with micro-environmental factors such as minor temperature fluctuations potentially resulting differences in median and maximum lifespan between replicates. After determining the optimal doses of 250 μM SIH and 200 μM Lip-1, respectively, cohorts of nematodes were compared in 8 independent replicates. As the number of worms measured is known to influence the likelihood of accurately observing differences in lifespan, the starting populations for all treatments within experiments were in excess of 70 individuals.

| SMILES | median lifespan extension |
| --- | --- |
| CCOC(=O)c1ccc(NC2CCCCC2)c(N)c1 [ferrostatin] | significant but more modest median lifespan extension |

Tested on: RSL3
Assay: IC50 (RSL3), Table 1
Type: cell-based
Settings: not given

| SMILES | IC50 |
| --- | --- |
| CCC/C=C/c1nc(NC2CCOC2)c2c(n1)OCC(=O)N2 (stereo not drawn) [Compound B-603, 4-[(oxolan-3-yl)amino]-2-[(1E)-pent-1-en-1-yl]-5H,6H,7H-pyrimido[4,5-b][1,4]oxazin-6-one] | > 3000 nM |
| CCC(C)Nc1ccc(-c2ccc(C)cc2)nc1NC1CCCC1 (stereo not drawn) [Compound H-61, N^2-cyclopentyl-6-(p-tolyl)-N^3-sec-butyl-pyridine-2,3-diamine] | 7 nM |
| CC(C)(C)Nc1ccc(-c2ccncc2)nc1NC1CCCC1 [Compound L-04, N^3-tert-butyl-N^2-cyclopentyl-6-(4-pyridyl)pyridine-2,3-diamine] | 5 nM |
| CCC(C)Nc1ccc(-c2ccc(C)cc2)nc1NC(C)(C)C [Compound L-02, N^2-tert-butyl-6-(p-tolyl)-N^3-sec-butyl-pyridine-2,3-diamine] | 5 nM |
| CCOC(=O)c1cc2c(c(C(=O)C(F)(F)F)c1)NC(C)(C)C=C2 [Compound B-101, Ethyl 2,2-dimethyl-8-(2,2,2-trifluoroacetyl)-1,2-dihydroquinoline-6-carboxylate] | > 3000 nM |
| CCCCC(=O)c1cc(F)c2c(c1)CCCN2 [Compound B-132] | > 3000 nM |
| CCC(C)Nc1ccc(-c2ccc(OC)cc2)nc1NC1CCCC1 (stereo not drawn) [Compound H-86, N^2-cyclopentyl-6-(4-methoxyphenyl)-N^3-sec-butyl-pyridine-2,3-diamine] | 8 nM |
| CCCCCc1nc2c(c(NC3CCCC3)n1)NC(C)(C)CC2 [Compound B-917, N-cyclopentyl-6,6-dimethyl-2-pentyl-5H,6H,7H,8H-pyrido[3,2-d]pyrimidin-4-amine] | > 3000 nM |
| CCC(C)Nc1ccc(-c2cncnc2)nc1NC1CCCC1 (stereo not drawn) [Compound H-80, N^2-cyclopentyl-6-pyrimidin-5-yl-N^3-sec-butyl-pyridine-2,3-diamine] | 7 nM |
| CCCCC(=O)c1cc2c(c(NC3CCCC3)c1)OCCC2 [Compound B-035, 1-[8-(cyclopentylamino)-3,4-dihydro-2H-1-benzopyran-6-yl]pentan-1-one] | > 3000 nM |
| Cc1ccc(-c2ccc(NC3COC3)c(NC3CCCC3)n2)cc1 [Compound H-81, N^2-cyclopentyl-N^3-(oxetan-3-yl)-6-(p-tolyl)pyridine-2,3-diamine] | 5 nM |
| Cc1ccc(-c2ccc(NC(C)(C)C)c(NC3CCCC3)n2)cc1 [Compound A-98, N^3-tert-butyl-N^2-cyclopentyl-6-(p-tolyl)pyridine-2,3-diamine] | 7 nM |
| CCC/C=C/c1nc2c(c(NC3CCCC3)n1)NCCC2 [Compound B-388, N-cyclopentyl-2-[(E)-pent-1-enyl]-5,6,7,8-tetrahydropyrido [3,2-d]pyrimidin-4-amine] | 40 nM |
| CCCCCc1nc(NC2CCCC2)c2c(n1)S(=O)(=O)CCN2 [Compound B-602, N-cyclopentyl-8,8-dioxo-2-pentyl-6,7-dihydro-5H-pyrimido[4,5-b][1,4]thiazin-4-amine] | ≥ 3000 nM |
| CCC(C)Nc1ccc(-c2ccncc2)nc1NC1CCCC1 (stereo not drawn) [Compound H-76, N^2-cyclopentyl-6-(4-pyridyl)-N^3-sec-butyl-pyridine-2,3-diamine] | 6 nM |
| CCC(C)Nc1ccc(-c2cccnc2)nc1NC1CCCC1 (stereo not drawn) [Compound H-74, N^2-cyclopentyl-6-(3-pyridyl)-N^3-sec-butyl-pyridine-2,3-diamine] | 5 nM |
| COc1ccc(-c2ccc(NC3COC3)c(NC3CCCC3)n2)cc1 [Compound H-87, N^2-cyclopentyl-6-(4-methoxyphenyl)-N^3-(oxetan-3-yl)pyridine-2,3-diamine] | 3 nM |
| CCCCC(OC)c1cc2c(c(Nc3ccccn3)c1)NCCC2 (stereo not drawn) [Compound B-397, 6-(1-methoxypentyI)-N-(2-pyridyl)-1,2,3,4-tetrahydroquinolin-8-amine] | 70 nM |
| CC1(Nc2nc(-c3ccc(F)cc3)ccc2NC2CCC2)CCOC1 (stereo not drawn) [Compound P-54, N^3-cyclobutyl-6-(4-fluorophenyl)-N^2-(3-methyltetrahydrofuran-3-yl)pyridine-2,3-diamine] | 3 nM |

| SMILES | IC50 |
| --- | --- |
| CC(C)=Cc1nc(C)nc(NC2CCCC2)c1N [Compound F-99, N^4-cyclopentyl-2-methyl-6-(2-methylprop-1-enyl)pyrimidine-4,5-diamine] | > 625 nM |
| Cc1ccc(-c2nc3c(c(NC4CCCC4)n2)NCCC3)cc1 [Compound A-32, N-cyclopentyl-2-(p-tolyl)-5,6,7,8-tetrahydropyrido[3,2-d]pyrimidin-4-amine] | 6 nM |
| c1ncc(-c2ncc(NC3COC3)c(NC3CCCC3)n2)cn1 [Compound F-82, N^4-cyclopentyl-N^5-(oxetan-3-yl)-2-pyrimidin-5-yl-pyrimidine-4,5-diamine] | > 625 nM |
| CCOC(=O)c1cc(N)c2c(c1)OCCN2 [Compound H-85] | > 1000 nM |
| CCCCCc1nc(NC2CCCC2)c2c(n1)OCCN2 [Compound B-711, N-cyclopentyl-2-pentyl-5H,6H,7H-pyrimido[4,5-b][1,4]oxazin-4-amine] | 41 nM |
| CON(C)C(=O)c1ccc2c(c1)C=CC(C)(C)N2 [Compound B-065] | > 3000 nM |
| CCCCC(=O)c1cc2c(c(OC3CCCC3)c1)NCCC2 [Compound Q-980, 1-[8-(cyclopentoxy)-1,2,3,4-tetrahydroquinolin-6-yl]pentan-1-one] | > 3000 nM |
| CCCCC(=O)c1cc2c(c(-c3ccncc3)c1)NCCC2 [Compound Q-950, 1-[8-(4-pyridyI)-1,2,3,4-tetrahydroquinolin-6-yl]pentan-1-one] | > 3000 nM |
| CCCCCc1nc(NC2CCCC2)c2c(n1)SCCN2 [Compound B-601, N-cyclopentyl-2-pentyl-5H,6H,7H-pyrimido[4,5-b][1,4]thiazin-4-amine] | 3 nM |
| CCCCC(=O)c1cc2c(c(-n3ccnc3)c1)NCCC2 [Compound B-006, 1-(8-imidazol-1-yl-1,2,3,4-tetrahydroquinolin-6-yl)pentan-1-one] | > 3000 nM |
| CC1=Nc2cc(C#N)ccc2NC1(C)C [Compound Q-912, 2,2,3-trimethyl-1H-quinoxaline-6-carbonitrile] | > 3000 nM |
| CCCCC(=O)c1cc2c3c(c1)nc(C(F)(F)F)n3CCC2 [Compound B-099, 1-[2-(trifluoromethyl)-1,3-diazatricyclo[6.3.1.04,12]dodeca-2,4(12),5,7-tetraen-6-yl]pentan-1-one] | > 3000 nM |
| CCCCC(=O)c1cc2c(c(N(S(=O)(=O)CC(C)C)S(=O)(=O)CC(C)C)c1)NCCC2 [Compound B-248, N-isobutylsulfonyl-2-methyl-N-(6-pentanoyl-1,2,3,4-tetrahydroquinolin-8-yl)propane-1-sulfonamide] | > 3000 nM |
| CCC/C=C/c1nc(NC2CCCC2)c2c(n1)SCC(=O)N2 [Compound B-600, 4-(cyclopentylamino)-2-[(1E)-pent-1-en-1-yl]-5H,6H,7H-pyrimido[4,5-b][1,4]thiazin-6-one] | ≥ 3000 nM |
| CCCCC(O)c1cc2c(c(NC(C)(C)C)n1)NCC(C(F)(F)F)C2 (stereo not drawn) [Compound R-812, 1-[8-(tert-butylamino)-3-(trifluoromethyl)-1,2,3,4-tetrahydro-1,7-naphthyridin-6-yl]pentan-1-ol] | 40 nM |
| CCCCC(=O)c1cc2c(c(NC3CCCC3)n1)NCCC2 [Compound B-647, 1-[8-(cyclopentylamino)-1,2,3,4-tetrahydro-1,7-naphthyridin-6-yl]pentan-1-one] | 8 nM |
| CCC(C)Nc1ccc(-c2ccncc2)nc1NC(C)(C)C (stereo not drawn) [Compound P-22] | 1 nM |
| CC1(Nc2nc(-c3ccc(F)cc3)ccc2NC2CCOCC2)CCOC1 (stereo not drawn) [Compound N-53, 6-(4-fluorophenyl)-N^2-(3-methyltetrahydrofuran-3-yl)-N^3-tetrahydropyran-4-yl-pyridine-2,3-diamine] | 1 nM |
| CCCCCc1ccc(NC(C)CC)c(NC2CCCC2)n1 (stereo not drawn) [Compound H-72, N^2-cyclopentyl-6-pentyl-N^3-sec-butyl-pyridine-2,3-diamine] | 6 nM |

Same assay, conditions: unit cell prints uM

| SMILES | IC50 |
| --- | --- |
| CCCCC(O)c1nc2c(c(Nc3ccccn3)n1)NCCC2 (stereo not drawn) [Compound G-63, 1-[4-(2-pyridylamino)-5,6,7,8-tetrahydropyrido[3,2-d]pyrimidin-2-yl]pentan-1-ol] | > 10000 nM |
| CNC(=O)c1nc(-c2ccc(C)cc2)nc2c1NC(C)(C)N2C1CCCC1 [Compound K-34, 9-cyclopentyl-N,8,8-trimethyl-2-(p-tolyI)-5,7-dihydro-4H-purine-6-carboxamide] | > 10000 nM |
| CCCCC(=O)c1nc2c(c(Nc3ccccn3)n1)NCCC2 [Compound G-65, 1-[4-(2-pyridylamino)-5,6,7,8-tetrahydropyrido[3,2-d]pyrimidin-2-yl]pentan-1-one] | > 10000 nM |
